According to ChEMBL document CHEMBL5620396, “Phenotypic screening identifies a trisubstituted imidazo[1,2-a]pyridine series that induces differentiation in multiple AML cell lines” (Eur J Med Chem, 2023):
Calls of active or inactive are those of the source. The calls are words filed in the database; no cut-off is given here.

Legend:
[1] = Dose normalized AUC (0 to 8 hrs) in CD-1 mouse at 20 mg/kg, po administered as single dose and measured on day 1; type: ADME, organism-based; conditions: in vivo, 24 h, time 1 day
HL-60 [2] = assay: Induction of morphological changes in human HL-60 cells assessed as appearance of granules and vacuoles at 10 uM; type: functional, cell-based
HL-60 [3] = assay: Induction of differentiation in human HL-60 cells assessed as reduction in live cell number at 123 nM incubated for 4 days by acridine orange/DAPI staining based analysis; type: functional; conditions: time 4.0 day
OCI-AML-3 [4] = assay: Induction of differentiation in human OCI-AML-3 cells assessed as reduction in live cell number at 123 nM incubated for 4 days by acridine orange/DAPI staining based analysis; type: functional; conditions: time 4.0 day
KG-1 = assay: Induction of differentiation in human KG-1 cells assessed as reduction in live cell number at 123 nM incubated for 4 days by acridine orange/DAPI staining based analysis; type: functional; conditions: time 4.0 day
THP-1 = assay: Induction of morphological changes in human THP-1 cells assessed as appearance of granules and vacuoles at 10 uM; type: functional, cell-based
OCI-AML-3 [5] = assay: Induction of morphological changes in human OCI-AML-3 cells assessed as variations in nuclear:cytoplasmic ratio at 10 uM; type: functional, cell-based
OCI-AML-3 [6] = assay: Induction of morphological changes in human OCI-AML-3 cells assessed as appearance of granules and vacuoles at 10 uM; type: functional, cell-based
Kasumi 1 = assay: Induction of morphological changes in human Kasumi 1 cells assessed as variations in nuclear:cytoplasmic ratio at 10 uM; type: functional, cell-based
[7] = Apparent clearance in CD-1 mouse at 3 mg/kg, po administered as single dose and measured over 24 hrs; type: ADME, organism-based; conditions: in vivo
[8] = AUC (0 to 8 hrs) in CD-1 mouse at 3 mg/kg, po administered as single dose and measured over 24 hrs; type: ADME, organism-based; conditions: in vivo
[9] = Dose normalized Cmax in CD-1 mouse at 3 mg/kg, po administered as single dose and measured over 24 hrs; type: ADME, organism-based; conditions: in vivo
[10] = Dose normalized AUC (0 to 8 hrs) in CD-1 mouse at 20 mg/kg, po administered as repeated dose on day 1 and 4; type: ADME, organism-based; conditions: in vivo, 96 h, time 4 day
[11] = AUC (0 to 8 hrs) in CD-1 mouse at 1 mg/kg, po administered as single dose and measured on day 1; type: ADME, organism-based; conditions: in vivo, time 1 day
[12] = Cmax in CD-1 mouse at 1 mg/kg, po administered as single dose and measured on day 1; type: ADME, organism-based; conditions: in vivo, time 1 day

For Cc1cc(F)ccc1-c1cc(NS(C)(=O)=O)c2ncc(-c3ccc4c(cnn4C)c3)n2c1, the AUC/dose [1] was 223 ng·h/mL, the Activity (HL-60 [2]) was “Active” and the Activity (HL-60 [3]) was “Active”. The Activity (OCI-AML-3 [4]) was “Active”, the Activity (KG-1) was “Active” and the Activity (THP-1) was “Active”. For the same compound, the Activity (OCI-AML-3 [5]) was “Active”, the Activity (OCI-AML-3 [6]) was “Active” and the Activity (Kasumi 1) was “Active”. It also gave a CL/F [7] of 16 mL/min/kg, an AUC(0-t) at 24 h [8] of 3060 ng·h/mL and a Cmax/dose [9] of 120 ng/mL. For the same compound, the AUC/dose [10] was 218 ng·h/mL, the AUC(0-t) at 24 h [11] was 845 ng·h/mL and the Cmax [12] was 187 ng/mL.
